Test results from patent US20230355759A1, “POPULATIONS OF NATURAL KILLER CELLS COMPRISING A CLEAVAGE RESISTANT CD16” (CELULARITY INC., priority 2019, published 2023).

Assays:
CD34 cells = assay: CD34 cell expansion at Day 14 of the culture; assay type: cell-based, human; conditions: compound at 10 μM
Method: (§1) For biological testing, the compounds were provided to culture to evaluate their effects on NK cell expansion and differentiation. Specifically, donors of CD34^+ cells (StemCell Technology) were thawed and expanded in vitro following NK culture protocol. During the first 14 days of the culture, each CRL compounds was dissolved in DMSO and added to the culture at 10 μM concentration. SR1 (at 10 μM) served as a positive control compound, while DMSO alone without any compound served as a negative control. At the end of the culture on Day 35, cell expansion, natural killer (NK) cell differentiation and cytotoxicity of the cells against K562 tumor cell line were characterized. Due to the large number of the compounds, the testing was performed in two experiments, CRL1-11 and CRL 12-22. The same donors were used for each experiment. Positive and negative controls were also included in both experiments.

CD34+ cells [1] = assay: NK cell expansion in three-stage NK culture with compound; assay type: cell-based, human; conditions: for expansion, differentiation and cytotoxicity profiles compared to SR1: PNK-007 culture; for support of NK (PNK-007) expansion: compound at 10 μM during the first 14 days, 35-day culture; for NK cell expansion compared to SR1: compound and SR1 at 10 μM, Day 35
Text: (§2) UCB CD34+ cells were cultivated in presence of cytokines including thrombopoietin, SCF, Flt3 ligand, IL-7, IL-15 and IL-2 for 35 days to produce three-stage NK cells, as described in Example 1. Multi-color flow cytometry was used to determine the phenotypic characteristics of three-stage NK cells.
as §1

CD34+ cells [2] = assay: NK cell differentiation of compound cultured cells (flow cytometry); assay type: cell-based, human; conditions: PNK-007 culture
Text: as §2, §1

K562 tumor cells = assay: Cytotoxicity assay of compound cultured cells against K562; assay type: cell-based; conditions: K562, 10:1 effector to target ratio
Method: as §1
Cytotoxicity assay was run using compound cultured cells against K562 tumor cells at 10:1 effector to target ratio (FIG. 5) to evaluate cell functions.

| Compound | CD34 cell expansion (CD34 cells) | expansion, differentiation and cytotoxicity profiles compared to SR1 (CD34+ cells [1]) | support of NK (PNK-007) expansion (CD34+ cells [1]) | CD56+/CD11a+ subpopulation compared to SR1 (CD34+ cells [2]) | killing activities compared to cells cultured with SR1 (K562 tumor cells) | NK cell expansion compared to SR1 (CD34+ cells [1]) |
| --- | --- | --- | --- | --- | --- | --- |
| N#Cc1cncc(-c2nc(NCCc3c[nH]c4ccccc34)c3occc3n2)c1 [CRL22, 5-(4-((2-(1H-indol-3-yl)ethyl)amino)furo[3,2-d]pyrimidin-2-yl)nicotinonitrile] | highest CD34 cell expansion | very similar expansion, differentiation and cytotoxicity profiles as SR1 | supported cell expansion the best |  |  |  |
| Fc1cncc(-c2nc(NCCc3c[nH]c4ccccc34)c3occc3n2)c1 [CRL19, N-(2-(1H-indol-3-yl)ethyl)-2-(5-fluoropyridin-3-yl)furo[3,2-d]pyrimidin-4-amine] | highest CD34 cell expansion | very similar expansion, differentiation and cytotoxicity profiles as SR1 | supported cell expansion the best |  |  |  |
| Cc1cncc(-c2nc(NCCc3c[nH]c4ccccc34)c3occc3n2)c1 [CRL20, N-(2-(1H-indol-3-yl)ethyl)-2-(5-methylpyridin-3-yl)furo[3,2-d]pyrimidin-4-amine] | highest CD34 cell expansion | very similar expansion, differentiation and cytotoxicity profiles as SR1 | supported cell expansion the best |  |  |  |
| CCC(C)Nc1cc(-c2cncc(C#N)c2)nc(NCCc2c[nH]c3ccccc23)n1 (centres unmarked) [CRL7, 5-(2-((2-(1H-indol-3-yl)ethyl)amino)-6-(sec-butylamino)pyrimidin-4-yl)nicotinonitrile] |  |  | all the compounds except CRL7 and CRL13 supported PNK-007 expansion and differentiation |  |  |  |
| CC(C)c1csc2c(NCCc3c[nH]c4ccccc34)nc(-c3cncc(F)c3)nc12 [CRL18, N-(2-(1H-indol-3-yl)ethyl)-2-(5-fluoropyridin-3-yl)-7-isopropylthieno[3,2-d]pyrimidin-4-amine] |  |  |  | increased CD56+/CD11a+ subpopulation | increased killing activities of the cells | slightly less expansion compared to SR1 |
| Cc1cncc(-c2nc(NCCc3c[nH]c4ccccc34)c3scc(C(C)C)c3n2)c1 [CRL21, N-(2-(1H-indol-3-yl)ethyl)-7-isopropyl-2-(5-methylpyridin-3-yl)thieno[3,2-d]pyrimidin-4-amine] |  |  |  | increased CD56+/CD11a+ subpopulation | increased killing activities of the cells | slightly less expansion compared to SR1 |
| CCC(C)Nc1nc(NCCc2c[nH]c3ccccc23)c2ccccc2n1 (centres unmarked) [CRL13, N^4-(2-(1H-indol-3-yl)ethyl)-N^2-(sec-butyl)quinazoline-2,4-diamine] |  |  | all the compounds except CRL7 and CRL13 supported PNK-007 expansion and differentiation |  |  |  |
| CC(C)c1csc2c(NCCc3c[nH]c4ccccc34)nc(-c3cncc(C#N)c3)nc12 [CRL17, 5-(4-((2-(1H-indol-3-yl)ethyl)amino)-7-isopropylthieno[3,2-d]pyrimidin-2-yl)nicotinonitrile] |  |  |  | increased CD56+/CD11a+ subpopulation | increased killing activities of the cells | slightly less expansion compared to SR1 |
